Assay results taken from the supplement of paper PMC10307832.

Columns and labels:
Experiment in all cases: relative viability (nuclei count vs DMSO), 5 days (fraction); higher = more cells survive
17-AAG = compound: C=CCNC1=C2C[C@@H](C)C[C@H](OC)[C@H](O)[C@@H](C)/C=C(\C)[C@H](OC(N)=O)[C@@H](OC)/C=C\C=C(/C)C(=O)NC(=CC1=O)C2=O [17-AAG]
Procedure, shortened: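 Following overnight incubation at 37 °C, lung cancer cell lines in 1536-well plates were pinned with five library-drug doses (not always all listed) in √10 steps on vehicle-anchored plates. The cells then spent 5 days without medium change before a combined fix, permeabilisation and Hoechst stain, 4× imaging and MetaXpress nuclear counts. Viability is the treated-to-vehicle ratio of nuclei, taken as the median across plates. Only plates with control CV below 25% and at least one doubling passed.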

17-AAG + Bortezomib = compound: C=CCNC1=C2C[C@@H](C)C[C@H](OC)[C@H](O)[C@@H](C)/C=C(\C)[C@H](OC(N)=O)[C@@H](OC)/C=C\C=C(/C)C(=O)NC(=CC1=O)C2=O [17-AAG] + CC(C)C[C@H](NC(=O)[C@H](Cc1ccccc1)NC(=O)c1cnccn1)B(O)O [Bortezomib] (partner 0.002 µM)
Procedure, shortened: (§1)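 The day after seeding in 1536-well plates, lung cancer cell lines were treated by pin tool with a single drug, or with a fixed anchor-drug dose together with five library-drug doses (not always all listed) in √10 steps. After 5 days, a combined fix-and-stain solution (final 0.05% Triton X-100, 1% formaldehyde, 1 ug/ml Hoechst) was added. Nuclei counted on 4× images gave relative viability as treated counts over vehicle counts, reported as the median of duplicate plates.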

17-AAG + Navitoclax = compound: C=CCNC1=C2C[C@@H](C)C[C@H](OC)[C@H](O)[C@@H](C)/C=C(\C)[C@H](OC(N)=O)[C@@H](OC)/C=C\C=C(/C)C(=O)NC(=CC1=O)C2=O [17-AAG] + CC1(C)CCC(c2ccc(Cl)cc2)=C(CN2CCN(c3ccc(C(=O)NS(=O)(=O)c4ccc(N[C@H](CCN5CCOCC5)CSc5ccccc5)c(S(=O)(=O)C(F)(F)F)c4)cc3)CC2)C1 [Navitoclax] (partner 0.5 µM)
Procedure, shortened: as §1

17-AAG + Foretinib = compound: C=CCNC1=C2C[C@@H](C)C[C@H](OC)[C@H](O)[C@@H](C)/C=C(\C)[C@H](OC(N)=O)[C@@H](OC)/C=C\C=C(/C)C(=O)NC(=CC1=O)C2=O [17-AAG] + COc1cc2c(Oc3ccc(NC(=O)C4(C(=O)Nc5ccc(F)cc5)CC4)cc3F)ccnc2cc1OCCCN1CCOCC1 [Foretinib] (partner 0.25 µM)
Procedure, shortened: as §1

17-AAG + Lapatinib = compound: C=CCNC1=C2C[C@@H](C)C[C@H](OC)[C@H](O)[C@@H](C)/C=C(\C)[C@H](OC(N)=O)[C@@H](OC)/C=C\C=C(/C)C(=O)NC(=CC1=O)C2=O [17-AAG] + CS(=O)(=O)CCNCc1ccc(-c2ccc3ncnc(Nc4ccc(OCc5cccc(F)c5)c(Cl)c4)c3c2)o1 [Lapatinib] (partner 2 µM)
Procedure, shortened: as §1

17-AAG + Pictilisib = compound: C=CCNC1=C2C[C@@H](C)C[C@H](OC)[C@H](O)[C@@H](C)/C=C(\C)[C@H](OC(N)=O)[C@@H](OC)/C=C\C=C(/C)C(=O)NC(=CC1=O)C2=O [17-AAG] + CS(=O)(=O)N1CCN(Cc2cc3nc(-c4cccc5[nH]ncc45)nc(N4CCOCC4)c3s2)CC1 [Pictilisib] (partner 1 µM)
Procedure, shortened: as §1

17-AAG + Crizotinib = compound: C=CCNC1=C2C[C@@H](C)C[C@H](OC)[C@H](O)[C@@H](C)/C=C(\C)[C@H](OC(N)=O)[C@@H](OC)/C=C\C=C(/C)C(=O)NC(=CC1=O)C2=O [17-AAG] + C[C@@H](Oc1cc(-c2cnn(C3CCNCC3)c2)cnc1N)c1c(Cl)ccc(F)c1Cl [Crizotinib] (partner 1 µM)
Procedure, shortened: as §1

17-AAG + Linsitinib = compound: C=CCNC1=C2C[C@@H](C)C[C@H](OC)[C@H](O)[C@@H](C)/C=C(\C)[C@H](OC(N)=O)[C@@H](OC)/C=C\C=C(/C)C(=O)NC(=CC1=O)C2=O [17-AAG] + C[C@]1(O)C[C@@H](c2nc(-c3ccc4ccc(-c5ccccc5)nc4c3)c3c(N)nccn32)C1 [Linsitinib] (partner 1 µM)
Procedure, shortened: as §1

17-AAG + Alpelisib = compound: C=CCNC1=C2C[C@@H](C)C[C@H](OC)[C@H](O)[C@@H](C)/C=C(\C)[C@H](OC(N)=O)[C@@H](OC)/C=C\C=C(/C)C(=O)NC(=CC1=O)C2=O [17-AAG] + Cc1nc(NC(=O)N2CCC[C@H]2C(N)=O)sc1-c1ccnc(C(C)(C)C(F)(F)F)c1 [Alpelisib] (partner 2 µM)
Procedure, shortened: as §1

17-AAG + Vorinostat = compound: C=CCNC1=C2C[C@@H](C)C[C@H](OC)[C@H](O)[C@@H](C)/C=C(\C)[C@H](OC(N)=O)[C@@H](OC)/C=C\C=C(/C)C(=O)NC(=CC1=O)C2=O [17-AAG] + O=C(CCCCCCC(=O)Nc1ccccc1)NO [Vorinostat] (partner 1 µM)
Procedure, shortened: as §1

17-AAG + Olaparib = compound: C=CCNC1=C2C[C@@H](C)C[C@H](OC)[C@H](O)[C@@H](C)/C=C(\C)[C@H](OC(N)=O)[C@@H](OC)/C=C\C=C(/C)C(=O)NC(=CC1=O)C2=O [17-AAG] + O=C(c1cc(Cc2n[nH]c(=O)c3ccccc23)ccc1F)N1CCN(C(=O)C2CC2)CC1 [Olaparib] (partner 8 µM)
Procedure, shortened: as §1

IA-LM
relative viability (17-AAG; 0.00128 µM): 0.954
relative viability (17-AAG; 0.004048 µM): 0.956
relative viability (17-AAG; 0.0128 µM): 0.874
relative viability (17-AAG; 0.04048 µM): 0.393
relative viability (17-AAG; 0.128 µM): 0.118
relative viability (17-AAG + Bortezomib; first compound 0.00128 µM): 0.886
relative viability (17-AAG + Bortezomib; first compound 0.004048 µM): 0.604
relative viability (17-AAG + Bortezomib; first compound 0.0128 µM): 0.766
relative viability (17-AAG + Bortezomib; first compound 0.04048 µM): 0.326
relative viability (17-AAG + Bortezomib; first compound 0.128 µM): 0.0846
relative viability (17-AAG + Navitoclax; first compound 0.00128 µM): 0.901
relative viability (17-AAG + Navitoclax; first compound 0.004048 µM): 0.784
relative viability (17-AAG + Navitoclax; first compound 0.0128 µM): 0.757
relative viability (17-AAG + Navitoclax; first compound 0.04048 µM): 0.237
relative viability (17-AAG + Navitoclax; first compound 0.128 µM): 0.0731
relative viability (17-AAG + Foretinib; first compound 0.00128 µM): 1.21
relative viability (17-AAG + Foretinib; first compound 0.004048 µM): 1.05
relative viability (17-AAG + Foretinib; first compound 0.0128 µM): 1.19
relative viability (17-AAG + Foretinib; first compound 0.04048 µM): 0.491
relative viability (17-AAG + Foretinib; first compound 0.128 µM): 0.313
relative viability (17-AAG + Lapatinib; first compound 0.00128 µM): 1.06
relative viability (17-AAG + Lapatinib; first compound 0.004048 µM): 0.736
relative viability (17-AAG + Lapatinib; first compound 0.0128 µM): 0.479
relative viability (17-AAG + Lapatinib; first compound 0.04048 µM): 0.502
relative viability (17-AAG + Lapatinib; first compound 0.128 µM): 0.0825
relative viability (17-AAG + Pictilisib; first compound 0.00128 µM): 0.325
relative viability (17-AAG + Pictilisib; first compound 0.004048 µM): 0.366
relative viability (17-AAG + Pictilisib; first compound 0.0128 µM): 0.182
relative viability (17-AAG + Pictilisib; first compound 0.04048 µM): 0.0706
relative viability (17-AAG + Pictilisib; first compound 0.128 µM): 0.0517
relative viability (17-AAG + Crizotinib; first compound 0.00128 µM): 0.807
relative viability (17-AAG + Crizotinib; first compound 0.004048 µM): 0.663
relative viability (17-AAG + Crizotinib; first compound 0.0128 µM): 0.758
relative viability (17-AAG + Crizotinib; first compound 0.04048 µM): 0.291
relative viability (17-AAG + Crizotinib; first compound 0.128 µM): 0.0644
relative viability (17-AAG + Linsitinib; first compound 0.00128 µM): 0.551
relative viability (17-AAG + Linsitinib; first compound 0.004048 µM): 0.667
relative viability (17-AAG + Linsitinib; first compound 0.0128 µM): 0.599
relative viability (17-AAG + Linsitinib; first compound 0.04048 µM): 0.177
relative viability (17-AAG + Linsitinib; first compound 0.128 µM): 0.102
relative viability (17-AAG + Alpelisib; first compound 0.00128 µM): 0.719
relative viability (17-AAG + Alpelisib; first compound 0.004048 µM): 0.813
relative viability (17-AAG + Alpelisib; first compound 0.0128 µM): 0.657
relative viability (17-AAG + Alpelisib; first compound 0.04048 µM): 0.303
relative viability (17-AAG + Alpelisib; first compound 0.128 µM): 0.105
relative viability (17-AAG + Vorinostat; first compound 0.00128 µM): 0.911
relative viability (17-AAG + Vorinostat; first compound 0.004048 µM): 1.02
relative viability (17-AAG + Vorinostat; first compound 0.0128 µM): 0.927
relative viability (17-AAG + Vorinostat; first compound 0.04048 µM): 0.819
relative viability (17-AAG + Vorinostat; first compound 0.128 µM): 0.823
relative viability (17-AAG + Olaparib; first compound 0.00128 µM): 0.89
relative viability (17-AAG + Olaparib; first compound 0.004048 µM): 0.919
relative viability (17-AAG + Olaparib; first compound 0.0128 µM): 0.68
relative viability (17-AAG + Olaparib; first compound 0.04048 µM): 0.179
relative viability (17-AAG + Olaparib; first compound 0.128 µM): 0.0981
